Results published in patent US20060067978A1, “Process for preparing poly(vinyl alcohol) drug delivery devices” (Bausch & Lomb Incorporated, priority 2004, published 2006).

Experiment: thermal decomposition of the medicament at curing temperature
Format: physicochemical
Settings: heat stability considered for curing poly(vinyl alcohol) in the presence of the medicament

In the case of CC1(C)O[C@@H]2C[C@H]3[C@@H]4C[C@H](F)C5=CC(=O)C=C[C@]5(C)[C@@]4(F)[C@@H](O)C[C@]3(C)[C@]2(C(=O)CO)O1 [flucinolone acetonide], the “temperature above which the medicament begins to decompose” value is reported as “about 165 °C”.
